Laboratory results as given in ChEMBL document CHEMBL1149402, “New potential antibacterials: a synthetic route to N-aryloxazolidinone/3-aryltetrahydroisoquinoline hybrids” (2006).

System: Staphylococcus aureus
Assay: Antibacterial activity against methicillin-susceptible Staphylococcus aureus ATCC 29213
Assay type: functional

MIC: > 64 µg/mL
Compound: Br.CC(=O)NC[C@H]1CN(c2ccc(C3Cc4cc(O)c(O)cc4CN3)cc2)C(=O)O1 (stereo partly specified)
